Measured values published in patent US20020028807A1, “Non-nucleoside reverse transcriptase inhibitors” (priority 2000, published 2002).

Key:
[1] = target: T1, HIV-1 RT K103N/Y181C (Human immunodeficiency virus type 1 group M subtype B, UniProt P03366, K702N/Y780C); test: Reverse transcriptase (RT) assay, K103N/Y181C mutant; assay type: biochemical
T1 construct: an HIV RT clone pKRT2 containing only the RT p66 gene regulated by the lac operon/trc promoter; made in house; host or cells: E. coli JM109, vector pKK233-2
From the text: (§1) Among the enzymes for which Human Immunodeficiency Virus (HIV-1) encodes is a reverse transcriptase (1), so-named because it transcribes a DNA copy from an RNA template. This activity can be quantitatively measured in a cell-free enzyme assay and is based upon the observation that reverse transcriptase is able to use a synthetic template poly r(C) primed with a biotinylated oligo d(G) to transcribe a radio-labelled DNA strand utilising 3H-dGTP as a substrate. The assay described below utilises the wild-type enzyme (which is the predominant form of the enzyme observed in patients infected with HIV-1) and can also be used with mutant RT enzymes (for example, Y181C, prepared by site-directed mutagenesis in which the tyrosine residue at codon 181 has been replaced by a cysteine residue) in analogous assay conditions. This assay allows compounds to be evaluated for their effectiveness at inhibiting the mutant enzymes.
(§2) Some HIV-1 IIIB clone BH10 RT mutants were provided by Dr. C.-K. Shih (Boehringer Ingelheim Pharmaceutials Inc., U.S.A.) in the vector pKK233-2 (Pharmacia). Briefly an HIV RT clone pKRT2 containing only the RT p66 gene regulated by the lac operon/trc promoter was obtained from Dr. W. Summers (Yale University) (2). A variety of specific amino acid substitutions were introduced into the wild-type RT gene by site-directed mutagenesis. RT clones were subcloned into the pKK233-2 bacterial expression vector. Clones provided included wild-type, Val106Ala, Tyr181Cys, Tyr188Cys, Tyr188Leu, Gly190Ala and Pro236Leu. Others were made in-house by site-directed mutagenesis of the pKK233-2 RT clones including Lys103Asn, Lys103Asn/Tyr181Cys, Lys103Asn/Leu100Ile, Lys103Asn/Pro225His, and Lys103Asn/Val108Ile.
(§3) Purification of recombinant reverse transcriptase was performed using a combination of methods previously described (3). A single colony from a fresh plate of transformed JM109 cells was used to initiate growth of a pre-culture grown o/n at 37° C. Two liters of growth medium were inoculated with this pre-culture. At OD600˜1.5 (5-6 h at 37° C.), RT gene expression was induced with IPTG (1 mM final), and the fermentation was continued for a few more hours at 37° C. After centrifugation, supernatants were discarded while cell pellets were pooled and stored at −80° C. until purification. Cells were thawed at 4° C. overnight and suspended in lysis buffer (MES 50 mM pH 6, EDTA 1 mM, 10% v/v glyerol, 0.02% w/v OBG, 0.02% w/v sodium azide). Lysozyme was added and the mixture was incubated on ice for 40 minutes. After homogenization using a bounce in presence of lysozyme and sonication, the cells were centrifuged for 30 minutes. Supernatant (S1) was saved and stored at 4° C. The centrifuged pellet was resuspended in extraction buffer (MES 50 mM pH 6, KPO4 50 mM pH 6, KCl 100 mM, 10% v/v glycerol, 0.02% w/v OBG, 0.02% w/v sodium axide) and stirred for 30 minutes at 4° C. This second mixture was centrifuged again and the supernatant (S2) was saved. The above procedure was repeated 2 more times saving supernatants S3 and S4 and one last extraction was performed overnight (S5). Polymin P (0.005% final) was added to the combined supernatants to remove nucleic acids. This solution was stirred for 75 minutes at 4° C. and centrifuged for 1 h. The supernatant (SS1) was precipitated on ice with 20% w/v ammonium sulfate and stirred for 1 h at 4° C. The mixture was then centrifuged and the resulting supernatant (SS2) was precipitated with additional 40% w/v ammonium sulfate (60% total), stirred for 1 h and centrifuged again. The final pellet (P1) was stored overnight at 4° C. before undergoing purification the following day. All steps of the purification were performed at 4° C. unless otherwise stated.
(§4) Pellet (P1) was resuspended into MES 50 mM pH 6, KPO4 10 mM pH 6, KCl 100 mM, 10% v/v glycerol, 0.02% w/v OBG, 0.02% w/v sodium azide. The suspension was dialysis against the same buffer overnight using 12-14 kD MWCO dialysis tubing. […]

[2] = target: T2, HIV-1 RT G190A (Human immunodeficiency virus type 1 group M subtype B, UniProt P03366, G789A); test: Reverse transcriptase (RT) assay, G190A mutant; assay type: biochemical
T2 construct: an HIV RT clone pKRT2 containing only the RT p66 gene regulated by the lac operon/trc promoter; made in house; host or cells: E. coli JM109, vector pKK233-2
From the text: as §1, §2, §3, §4

[3] = target: T3, HIV-1 RT Y181C (Human immunodeficiency virus type 1 group M subtype B, UniProt P03366, Y780C); test: Reverse transcriptase (RT) assay, Y181C mutant; assay type: biochemical
T3 construct: an HIV RT clone pKRT2 containing only the RT p66 gene regulated by the lac operon/trc promoter; made in house; host or cells: E. coli JM109, vector pKK233-2
From the text: as §1, §2, §3, §4

[4] = target: T4, HIV-1 RT K103N/V108I (Human immunodeficiency virus type 1 group M subtype B, UniProt P03366, K702N/V707I); test: Reverse transcriptase (RT) assay, K103N/V108I mutant; assay type: biochemical
T4 construct: an HIV RT clone pKRT2 containing only the RT p66 gene regulated by the lac operon/trc promoter; made in house; host or cells: E. coli JM109, vector pKK233-2
From the text: as §1, §2, §3, §4

[5] = target: T5, HIV-1 RT Y188L (Human immunodeficiency virus type 1 group M subtype B, UniProt P03366, Y787L); test: Reverse transcriptase (RT) assay, Y188L mutant; assay type: biochemical
T5 construct: an HIV RT clone pKRT2 containing only the RT p66 gene regulated by the lac operon/trc promoter; made in house; host or cells: E. coli JM109, vector pKK233-2
From the text: as §1, §2, §3, §4

[6] = target: T6, HIV-1 RT V106A (Human immunodeficiency virus type 1 group M subtype B, UniProt P03366, V705A); test: Reverse transcriptase (RT) assay, V106A mutant; assay type: biochemical
T6 construct: an HIV RT clone pKRT2 containing only the RT p66 gene regulated by the lac operon/trc promoter; made in house; host or cells: E. coli JM109, vector pKK233-2
From the text: as §1, §2, §3, §4

[7] = target: T7, HIV-1 RT wild-type (WT) (Human immunodeficiency virus type 1 group M subtype B, UniProt P03366); test: Reverse transcriptase (RT) assay, wild-type enzyme; assay type: biochemical
T7 construct: an HIV RT clone pKRT2 containing only the RT p66 gene regulated by the lac operon/trc promoter; made in house; host or cells: E. coli JM109, vector pKK233-2
From the text: as §1, §2, §3, §4

[8] = target: T8, HIV-1 RT K103N/P225H (Human immunodeficiency virus type 1 group M subtype B, UniProt P03366, K702N/P824H); test: Reverse transcriptase (RT) assay, K103N/P225H mutant; assay type: biochemical
T8 construct: an HIV RT clone pKRT2 containing only the RT p66 gene regulated by the lac operon/trc promoter; made in house; host or cells: E. coli JM109, vector pKK233-2
From the text: as §1, §2, §3, §4

[9] = target: T9, HIV-1 RT Y188C (Human immunodeficiency virus type 1 group M subtype B, UniProt P03366, Y787C); test: Reverse transcriptase (RT) assay, Y188C mutant; assay type: biochemical
T9 construct: an HIV RT clone pKRT2 containing only the RT p66 gene regulated by the lac operon/trc promoter; made in house; host or cells: E. coli JM109, vector pKK233-2
From the text: as §1, §2, §3, §4

[10] = target: T10, HIV-1 RT K103N/L100I (Human immunodeficiency virus type 1 group M subtype B, UniProt P03366, K702N/L699I); test: Reverse transcriptase (RT) assay, K103N/L100I mutant; assay type: biochemical
T10 construct: an HIV RT clone pKRT2 containing only the RT p66 gene regulated by the lac operon/trc promoter; made in house; host or cells: E. coli JM109, vector pKK233-2
From the text: as §1, §2, §3, §4

[11] = target: T11, HIV-1 RT K103N (Human immunodeficiency virus type 1 group M subtype B, UniProt P03366, K702N); test: Reverse transcriptase (RT) assay, K103N mutant; assay type: biochemical
T11 construct: an HIV RT clone pKRT2 containing only the RT p66 gene regulated by the lac operon/trc promoter; made in house; host or cells: E. coli JM109, vector pKK233-2
From the text: as §1, §2, §3, §4

[12] = tested on: HIV coding for wild-type reverse transcriptase (WT RT); test: ELISA (p24) assay of HIV replication in C8166 cell culture, wild-type RT virus; assay type: cell-based, HIV-1; conditions: Human immunodeficiency virus 1, C8166, 72 h, read-out: EC50 WT RT
Method: (§5) Compounds of the invention were tested for their ability to inhibit HIV replication in cell culture in a 96-well plate assay. Complete RPMI 1640, consisting of RPMI 1640+10% fetal bovine serum, 10 μg/ml gentamycin and 10 μM β-mercaptoethanol was used for dilution of the compound as well as cell growth medium. The T lymphocyte cell line C8166 was infected at a multiplicity of infection of 0.001 with viruses coding for wild-type and mutant reverse transcriptase. Cells were then incubated for three days in the presence of serial dilutions of the compounds of the invention. The supernatant was pooled from eight replica wells and the concentration of extracellular p24 was determined using a commercially available HIV-1 p24 antigen assay kit (Beckman-Coulter®). The level of inhibition (% inhibition) was calculated with the following equation: [formula]

[13] = target: T12, HIV-1 RT P23L (Human immunodeficiency virus type 1 group M subtype B, UniProt P03366, P835L); test: Reverse transcriptase (RT) assay, P23L mutant; assay type: biochemical
T12 construct: an HIV RT clone pKRT2 containing only the RT p66 gene regulated by the lac operon/trc promoter; made in house; host or cells: E. coli JM109, vector pKK233-2
From the text: as §1, §2
Purification of recombinant reverse transcriptase was performed using a combination of methods previously described (3). A single colony from a fresh plate of transformed JM109 cells was used to initiate growth of a pre-culture grown o/n at 37° C. Two liters of growth medium were inoculated with this pre-culture. At OD600˜1.5 (5-6 h at 37° C.), RT gene expression was induced with IPTG (1 mM final), and the fermentation was continued for a few more hours at 37° C. After centrifugation, supernatants were discarded while cell pellets were pooled and stored at −80° C. until purification. Cells were thawed at 4° C. overnight and suspended in lysis buffer (MES 50 mM pH 6, EDTA 1 mM, 10% v/v glyerol, 0.02% w/v OBG, 0.02% w/v sodium azide). Lysozyme was added and the mixture was incubated on ice for 40 minutes. After homogenization using a bounce in presence of lysozyme and sonication, the cells were centrifuged for 30 minutes. Supernatant (S1) was saved and stored at 4° C. […]

[14] = tested on: HIV coding for mutant reverse transcriptase K103N/Y181C; test: ELISA (p24) assay of HIV replication in C8166 cell culture, K103N/Y181C virus; assay type: cell-based, HIV-1; conditions: Human immunodeficiency virus 1, C8166, 72 h, read-out: EC50 K103N/Y181C
Method: as §5

[15] = tested on: HIV coding for mutant reverse transcriptase K103N; test: ELISA (p24) assay of HIV replication in C8166 cell culture, K103N virus; assay type: cell-based, HIV-1; conditions: Human immunodeficiency virus 1, C8166, 72 h, read-out: EC50 K103N
Method: as §5

[16] = tested on: HIV coding for mutant reverse transcriptase V106A; test: ELISA (p24) assay of HIV replication in C8166 cell culture, V106A virus; assay type: cell-based, HIV-1; conditions: Human immunodeficiency virus 1, C8166, 72 h, read-out: EC50 V106A
Method: as §5

[17] = tested on: HIV coding for mutant reverse transcriptase Y181C; test: ELISA (p24) assay of HIV replication in C8166 cell culture, Y181C virus; assay type: cell-based, HIV-1; conditions: Human immunodeficiency virus 1, C8166, 72 h, read-out: EC50 Y181C
Method: as §5

[18] = tested on: HIV coding for mutant reverse transcriptase Y188L; test: ELISA (p24) assay of HIV replication in C8166 cell culture, Y188L virus; assay type: cell-based, HIV-1; conditions: Human immunodeficiency virus 1, C8166, 72 h, read-out: EC50 Y188L
Method: as §5

Structure (SMILES) | IC50 [1] | IC50 [2] | IC50 [3] | IC50 [4] | IC50 [5] | IC50 [6] | IC50 [7] | IC50 [8] | IC50 [9] | IC50 [10] | IC50 [11] | EC50 [12] | IC50 [13] | EC50 [14] | EC50 [15] | EC50 [16] | EC50 [17] | EC50 [18]
CCN1c2ncc(CCOc3ccnc4ccccc34)cc2C(=O)N(C)c2ccc(Cl)nc21 [compound 2, 2-Chloro-5,11-dihydro-11-ethyl-5-methyl-8-{2-(4-quinolinyloxy)ethyl}-6H-dipyrido[3,2-b:2′,3′-e][1,4]diazepin-6-one] | 24.5 nM | 14.5 nM | 25 nM | 31 nM | 258 nM | 148 nM | 5.5 nM | 27 nM | 7.1 nM | 46 nM | 28.5 nM | 2.2 nM | 50.5 nM | – | – | – | – | –
CCN1c2ncc(CCOc3cc[n+]([O-])c4ccccc34)cc2C(=O)N(C)c2ccc(C)nc21 [compound 28, 2,5-Dimethyl-5,11-dihydro-11-ethyl-8-{2-{(1-oxido-4-quinolinyl)oxy}ethyl}-6H-dipyrido[3,2-b:2′,3′-e][1,4]diazepin-6-one] | 141 nM | 25 nM | – | 35 nM | 1190 nM | 605 nM | 19 nM | 25 nM | 9 nM | 28 nM | – | 1.3 nM | – | 7.5 nM | 2.3 nM | 42 nM | 2.6 nM | 70 nM
